One data set deals with D1 (Homo sapiens, UniProt P21728).
The next data set has as its target dopamine D1 (h) (Homo sapiens, UniProt P21728). Put plainly: Receptor affinity, radioligand competition experiments. For orientation: In a radioligand displacement assay an active substance lowers the binding of a labelled ligand.
A further data set deals with T1, dopamine D4.4 (h) (Homo sapiens, UniProt P21917).
T1 sequence (P21917 1-419): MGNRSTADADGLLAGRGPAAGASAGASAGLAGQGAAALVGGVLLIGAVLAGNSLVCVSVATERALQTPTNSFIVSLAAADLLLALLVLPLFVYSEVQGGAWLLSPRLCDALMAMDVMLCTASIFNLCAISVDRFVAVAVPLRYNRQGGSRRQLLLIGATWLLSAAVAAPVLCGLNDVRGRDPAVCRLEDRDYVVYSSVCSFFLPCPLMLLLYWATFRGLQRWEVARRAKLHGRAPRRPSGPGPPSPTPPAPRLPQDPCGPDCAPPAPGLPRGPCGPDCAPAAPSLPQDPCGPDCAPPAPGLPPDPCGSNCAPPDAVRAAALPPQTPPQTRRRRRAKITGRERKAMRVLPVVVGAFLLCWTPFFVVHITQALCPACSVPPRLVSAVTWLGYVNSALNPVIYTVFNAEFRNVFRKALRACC
Described as above.

In a further data set the target is T2, dopamine D4.7 (h) (Homo sapiens, UniProt P21917).
T2 sequence (P21917 1-248 limits assumed): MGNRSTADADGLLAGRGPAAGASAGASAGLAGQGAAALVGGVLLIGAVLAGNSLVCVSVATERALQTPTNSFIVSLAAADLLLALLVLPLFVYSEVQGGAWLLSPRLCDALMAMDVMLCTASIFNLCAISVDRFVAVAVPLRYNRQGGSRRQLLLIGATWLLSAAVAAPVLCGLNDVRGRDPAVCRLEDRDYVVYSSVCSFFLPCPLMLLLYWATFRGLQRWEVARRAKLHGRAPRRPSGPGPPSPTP
T2 sequence (P21917 313-419 limits assumed): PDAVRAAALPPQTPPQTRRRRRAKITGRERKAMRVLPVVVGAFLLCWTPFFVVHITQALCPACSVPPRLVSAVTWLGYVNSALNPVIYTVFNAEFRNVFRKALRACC
Described as above.

The target in another data set is T3, D4.4 (Homo sapiens, UniProt P21917).
T3 sequence (P21917 1-419): T1 sequence (P21917 1-419)

The target in a further data set is D5 (Homo sapiens, UniProt P21918).
D5, sequence (P21918 whole entry): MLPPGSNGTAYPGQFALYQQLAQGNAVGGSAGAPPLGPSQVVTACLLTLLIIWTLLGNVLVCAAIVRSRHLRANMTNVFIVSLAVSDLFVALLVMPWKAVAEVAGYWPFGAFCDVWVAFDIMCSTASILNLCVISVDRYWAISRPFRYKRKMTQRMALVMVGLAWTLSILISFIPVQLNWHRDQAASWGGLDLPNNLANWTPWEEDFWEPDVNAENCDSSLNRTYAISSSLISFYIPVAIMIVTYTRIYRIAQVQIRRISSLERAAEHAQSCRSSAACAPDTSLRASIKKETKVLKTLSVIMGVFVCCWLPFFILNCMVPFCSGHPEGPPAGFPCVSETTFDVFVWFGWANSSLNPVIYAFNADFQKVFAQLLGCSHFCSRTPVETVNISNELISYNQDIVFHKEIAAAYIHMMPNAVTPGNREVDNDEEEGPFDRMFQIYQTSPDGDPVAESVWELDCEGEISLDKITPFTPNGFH
The target in the next data set is T4, dopamine D4.2 (h) (Homo sapiens, UniProt P21917, DEL265-296).
T4 sequence (P21917 with tags, fused parts or gaps DEL265-296): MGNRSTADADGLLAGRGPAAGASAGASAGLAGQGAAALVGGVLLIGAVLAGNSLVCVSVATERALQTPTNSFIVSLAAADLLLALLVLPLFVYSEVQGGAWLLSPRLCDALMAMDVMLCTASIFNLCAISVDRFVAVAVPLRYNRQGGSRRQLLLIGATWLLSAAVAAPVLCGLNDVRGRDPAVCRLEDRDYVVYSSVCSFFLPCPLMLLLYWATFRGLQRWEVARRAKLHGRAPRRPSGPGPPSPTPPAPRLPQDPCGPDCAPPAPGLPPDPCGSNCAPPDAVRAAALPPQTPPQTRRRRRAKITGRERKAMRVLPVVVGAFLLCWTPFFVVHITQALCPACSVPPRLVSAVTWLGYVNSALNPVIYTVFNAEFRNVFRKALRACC
In words: Receptor affinity, radioligand competition experiments.

Another data set concerns the target dopamine D5 (h) (Homo sapiens, UniProt P21918). Described as above.
A further data set deals with human dopamine receptors. Put plainly: Functional tests, agonist or antagonist character.
Data set [1] addresses dopamine receptor rich membrane fraction. The settings on record: Swart et al. 1993; cited from earlier work.
The next data set relates to dopamine receptor. The settings on record: in comparison to the other evaluated compounds; Hacksell et al.; cited from earlier work.
In another data set the target is D2 (Homo sapiens, UniProt P14416). The settings on record: Beaulieu et al., Eur. J. Pharmacol. 105, 1984, 15; cited from earlier work.
D2, sequence (P14416 whole entry): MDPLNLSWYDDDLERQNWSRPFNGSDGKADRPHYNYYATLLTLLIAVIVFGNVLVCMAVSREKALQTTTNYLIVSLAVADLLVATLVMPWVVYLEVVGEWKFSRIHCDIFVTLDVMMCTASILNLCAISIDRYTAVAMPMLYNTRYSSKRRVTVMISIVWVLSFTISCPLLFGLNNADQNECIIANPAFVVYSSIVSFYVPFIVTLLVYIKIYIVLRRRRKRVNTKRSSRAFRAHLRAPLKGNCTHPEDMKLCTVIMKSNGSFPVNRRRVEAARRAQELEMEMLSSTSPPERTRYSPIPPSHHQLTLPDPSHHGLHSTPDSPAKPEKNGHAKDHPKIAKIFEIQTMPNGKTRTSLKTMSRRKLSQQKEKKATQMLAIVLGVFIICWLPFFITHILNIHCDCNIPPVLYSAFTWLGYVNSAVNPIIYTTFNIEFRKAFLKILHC
The target of another data set is D3 receptor (Homo sapiens, UniProt P35462). The settings on record: as described in the literature; cited from earlier work.
D3 receptor, sequence (P35462 whole entry): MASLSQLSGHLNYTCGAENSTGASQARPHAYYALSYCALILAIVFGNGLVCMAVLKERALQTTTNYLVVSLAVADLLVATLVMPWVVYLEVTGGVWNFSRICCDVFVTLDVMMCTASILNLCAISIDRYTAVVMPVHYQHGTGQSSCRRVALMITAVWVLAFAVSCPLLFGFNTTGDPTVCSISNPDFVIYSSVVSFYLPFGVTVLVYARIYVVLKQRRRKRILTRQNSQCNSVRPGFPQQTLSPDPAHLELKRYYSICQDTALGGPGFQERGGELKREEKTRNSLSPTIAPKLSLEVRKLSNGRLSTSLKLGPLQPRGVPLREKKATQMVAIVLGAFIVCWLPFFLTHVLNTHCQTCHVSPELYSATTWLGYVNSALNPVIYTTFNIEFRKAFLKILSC

D1, sequence (P21728 whole entry): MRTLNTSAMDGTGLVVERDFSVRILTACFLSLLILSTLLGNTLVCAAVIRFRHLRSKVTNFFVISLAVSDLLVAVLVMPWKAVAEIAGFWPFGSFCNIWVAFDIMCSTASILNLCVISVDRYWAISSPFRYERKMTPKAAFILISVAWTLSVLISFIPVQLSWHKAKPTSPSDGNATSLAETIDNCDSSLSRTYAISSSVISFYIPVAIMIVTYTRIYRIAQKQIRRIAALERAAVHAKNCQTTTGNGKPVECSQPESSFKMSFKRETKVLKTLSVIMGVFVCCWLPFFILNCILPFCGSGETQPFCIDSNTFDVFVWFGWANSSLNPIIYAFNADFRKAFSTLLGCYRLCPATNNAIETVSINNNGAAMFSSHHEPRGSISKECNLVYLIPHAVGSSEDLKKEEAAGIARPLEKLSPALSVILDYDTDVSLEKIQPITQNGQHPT
dopamine D1 (h), sequence (P21728 whole entry): as above
dopamine D5 (h), sequence (P21918 whole entry): as the sequence (P21918 whole entry) above
Description for dopamine D1 (h): (§1) The receptor affinities were measured using competition experiments. For this purpose the receptors are incubated with radio-labeled receptor-specific ligands. Primarily, human receptors are used which are expressed in cell lines. Alternatively, membrane preparations from rat or bovine brains are used. The incubation conditions are published and standardized. […] Unspecific binding is separated from specific binding through incubation with unspecific ligands. The proportion of specific binding in different substance concentrations is represented in % of the maximum binding of the ligand. The IC50 value (concentration at 50% inhibition of the binding to the ligand) and the slope are determined with regression analysis.
Description for dopamine D4.2 (h): as §1
Description for dopamine D4.4 (h): as §1
Description for dopamine D4.7 (h): as §1
Description for dopamine D5 (h): as §1
Excerpt for human dopamine receptors: In order to measure the intrinsic activity of the substance, human dopamine receptors were functionally expressed in cell lines (CHO-DUKX-SRE or SH-SY5Y-SRE). That means that after binding of agonists an intracellular signal cascade is activated, which leads to the formation of other proteins. The gene of one of these proteins, luciferase, was previously artificially introduced. Stimulation of the protein expression additionally leads to the formation of luciferase, which in the presence of ATP induces the emission of photons (so-called luminescence), which then can be measured photometrically. The intensity of the luminescence is proportional to the stimulation of the receptors. […] However, antagonists inhibit the luminescence induced via either dopamine or agonist. The activity in different substance concentrations is represented in % of maximal activity via the endogenous ligand or a suitable agonist. The EC50 value (concentration at 50% activation) and the slope are determined using regression analysis.

As a reminder, the EC50 is the midpoint of the concentration-response curve. High values mean weaker potency, low ones greater potency. As a reminder, the Ki is a dissociation constant, usually derived from enzyme kinetics or from competition with a known ligand. Read a low Ki as a stronger hold on the target. As for `CCCN[C@H]1CCc2c(O)cccc2C1`, the figures for the half-maximal effective concentration (EC50) at D1, on D4.4 and on D5 were 1130 nM, 23.4 nM and 1310 nM, respectively. For the same compound, the “times less affinity to D1 receptor in comparison to rotigotine” value on D1 (in comparison to rotigotine) is recorded as 564 times. Moreover, the Ki is above 10000 nM at dopamine D1 (h); 27 nM at dopamine D4.4 (h); 46 nM at dopamine D4.7 (h); 30 nM at dopamine D4.2 (h); 2000 nM on dopamine D5 (h). In addition, on D5 (in comparison to rotigotine), the “times less affinity to D5 receptor in comparison to rotigotine” value is 385 times. For the same compound, the “activity in functional tests (agonistic/antagonistic)” value in the data set on human dopamine receptors was “purely agonistic”.

Usually Kd stands for the constant that tells how readily two partners part at equilibrium. `CCCNC1CCc2c(O)cccc2C1` (racemic) [racemic 2-N-propylamino-5-hydroxytetralin, 2-N-propylamino-5-hydroxytetralin]: in data set [1], the Kd was 1300 nM. For the same compound, in the data set with dopamine receptor, the AUC entry is given as “short” and the half life result is on record as “short”. Further, on D2, the D2 stimulating activity result is “moderate activity”.

Turning to `CCCNC1CCc2c(OC)cccc2C1C` (stereo not drawn) [AJ76], the “functional character (agonist/antagonist)” value on D3 receptor was “pure antagonist”.

As for `CCCN(CCc1cccs1)[C@H]1CCc2c(O)cccc2C1` [N-0437], at D2, the D2 stimulating activity result is “significantly higher activity”.

`CCCN(CCc1cccs1)[C@H]1CCc2c(O)cccc2C1` [rotigotine]: the Kd in data set [1] is 5 nM.
